Results reported in patent US5736565A, “Therapeutic compounds suitable for the treatment of diseases connected with glutathione deficiency, process for their preparation, and pharmaceutical compositions containing same” (Prospa B.V., priority 1992, dated 1998).
Entries after “also recorded” stand apart in the source; their conditions may differ. Read-outs that look alike come from different tables or passages of the source. Peptide text beside a SMILES is read from it.

Legend:
[1] = system: hepatic GSH; assay: Test No. 1: protection from ethanol acute administration, hepatic GSH content; type: in vivo, male albino Wistar rats; design: GSH Content: unit not given beside the values; conditions: for GSH Content: liver, ethanol 3 g/kg i.p.
Method: Protection from ethanol acute administration […] Male albino Wistar rats weighing between 180 and 230 g were used. All animals were fasted for 24 hours prior to administration of isotonic solution, ethanol or ethanol combined with the test substances. As concerns the test substances, rats were intraperitoneally (i.p.) injected with compound of formula I (R=CH3) at doses of 10, 30, and 50 mg/kg and, for purposes of comparison, with the single constituents of compound (I) (R=CH3), […] (O-PRO) and L-cysteine (CIS), both at a 50 mg/kg dose. One hour after administration of the test substance, ethanol was injected i.p. at the dose of 3 g/kg. Thirty minutes later, the animals were sacrificed by decapitation and their liver was excised. […] Orwar et al., J. Chromatrogr., 556, 39-55 (1991).

[2] = system: hepatocytes; assay: Tests in vitro: vitality of isolated rat hepatocytes; type: cell-based; conditions: for viability at 250 µM / viability at 500 µM / viability at 1000 µM / viability at 2500 µM / viability at 5000 µM: Rattus norvegicus, Hepatocyte, read-out: Cells vitality; for viability at 1000 µM: DEM + 1.0 mM; for viability at 5000 µM: DEM + 5.0 mM
Method: The experimental model envisages the isolation of hepatic parenchymal cells of rats following perfusion, with collagenase, of the isolated organ. Prior to each test, hepatocytes vitality was quantified by Tripan Blue […]. Only the cells with a vitality greater than 90% were utilized. Hepatocytes were resuspended, at a concentration of 10^6 cells/ml, in a saline medium (Krebs Heinseleit) at ph 7.4, and then placed into rotating flasks in the presence of O2 (95%) and CO2 (5%), at 37° C. Cells keep vital for 5-6 hours at least.
[…] The cells were then washed for 30 min. and incubated with various concentrations of the test substance (from 0.25 to 5 mM).
By this experimental model it is possible to test the effect of the substance by evaluating the hepatic functionality determined by measurements of the vitality (Tables Nos. 3, 4, and 5) and of glutathione content (Tables 6, 7, and 8).
In the Tables 3-8 herein below reported, the controls are represented by normal hepatocytes, not treated either with DEM or with compound (I).

[3] = system: serum antibodies versus ram erythrocytes; assay: Immunization tests versus ram erythrocytes in rat immunodepressed by cyclophosphamide (CTX); type: in vivo, Sprague-Dawley rats; conditions: for serum antibodies level (agglutination, Days from immunization): 600 mg/kg i.p. + CTX
Method: Sprague-Dawley rats (Charles River, Calco (CO)), aged 10 weeks (young adults) and 24 months (old), were stabled under standard conditions (24°±1° C., 12 h light/dark cycle, free access to food and water). Handlings were made in such a way as to avoid stressful stimuli.
The animals were stabled in groups of 6 per cage and treated for 2 weeks (15 days) with a PSC daily dose of 600 mg/kg by intraperitoneal route (i.p.).
Immunization tests versus ram erythrocytes in Sprague-Dawley rat immunodepressed by cyclophosphamide (CTX)
0.3 Milliliters of ram erythrocytes (3%) in 0.9% sodium chloride solution were injected to Sprague-Dawley rats, both young (aged 10 weeks, weighing 150-200 g) and old (aged 24 months). A second injection was made on the 21st day after the first one. The rats were treated with PSC (600 mg/kg i.p.). Treatment started 3 days before immunization and continued until the 40th day of experiment. Cyclophosphamide (CTX) (150 mg/kg/die) was injected i.p. on the 3rd, 4th, and 5th day after immunization with erythrocytes.
The animals were subdivided (6 animals each group) into the following experimental groups:
1) Non-immunized controls (CTRL);
2) Immunized controls (CTRL);
4) Immunized +CTX+PSC (600 mg/kg i.p.).
The determination of serum antibodies levels was carried out by agglutination reaction: the serum in 0.9% sodium chloride solution was diluted from 1:2 to 1:1024 and ram erythrocytes at a concentration of 5×10^8 /ml were added. The determination of antibodies was carried out 2 hrs after incubation at 37° C. Each sample was assayed twice (Tables 11 and 12).

[4] = system: urethane-induced tumours of the lungs; assay: Urethane-induced tumours of the lungs in albino Swiss mice; type: in vivo
Method: Male albino adult Swiss mice (20-25 g) were used. All animals were inoculated i.p. with urethane. The animals were treated with PSC (600 mg/kg) 15 days prior to and after inoculation. Once the treatment was completed, the animals were sacrificed, their lungs excised and subjected to necrohistologic examination.

[5] = 600 mg/kg i.p., 30 days' treatment, 15 days after urethane i.p.

SMILES: CC(=O)SC[C@H](NC(=O)[C@@H]1CCC(=O)N1)C(=O)O [PSC, 2-(S)-(2-pyrrolidone-5-(S)-carbonyl amido)-3-acetylmercapto propionic acid] (HELM PEPTIDE1{[Glp].C}|PEPTIDE2{[ac]}$PEPTIDE1,PEPTIDE2,2:R3-1:R2$$$V2.0)
- hepatic glutathione formation (in words) ([1]; ethanol-treated rats): enhances hepatic glutathione formation nearly to physiological levels
- GSH Content ([1]; test substance 10 mg/kg i.p.): 3.6 ± 0.3
- GSH Content ([1]; test substance 30 mg/kg i.p.): 4.3 ± 0.6
- GSH Content ([1]; test substance 50 mg/kg): 5.8 ± 0.4
- viability at 250 µM ([2]; 0 h, DEM + 0.25 mM, 0 time (Table 4)): 95%
- viability at 500 µM ([2]; 0 h, DEM + 0.50 mM, 0 time (Table 4)): 95%
- viability at 1000 µM ([2]; 0 h, 0 time (Table 5)): 96%
- viability at 2500 µM ([2]; 0 h, DEM + 2.5 mM, 0 time (Table 5)): 96%
- viability at 5000 µM ([2]; 0 h, 0 time (Table 5)): 96%
- viability at 250 µM ([2]; 0 h, no DEM, 0.25 mM, 0 time): 100%
- viability at 500 µM ([2]; 0 h, no DEM, 0.50 mM, 0 time): 100%
- viability at 2500 µM ([2]; 0 h, no DEM, 2.5 mM, 0 time): 100%
- viability at 250 µM ([2]; 0.5 h, DEM + 0.25 mM, 30 min (Table 4)): 90%
- viability at 500 µM ([2]; 0.5 h, DEM + 0.50 mM, 30 min (Table 4)): 88%
- viability at 1000 µM ([2]; 0.5 h, 30 min (Table 5)): 92%
- viability at 2500 µM ([2]; 0.5 h, DEM + 2.5 mM, 30 min (Table 5)): 89%
- viability at 5000 µM ([2]; 0.5 h, 30 min (Table 5)): 88%
- viability at 250 µM ([2]; 0.5 h, no DEM, 0.25 mM, 30 min): 101%
- viability at 500 µM ([2]; 0.5 h, no DEM, 0.50 mM, 30 min): 101%
- viability at 2500 µM ([2]; 0.5 h, no DEM, 2.5 mM, 30 min): 94%
- viability at 250 µM ([2]; 1 h, DEM + 0.25 mM, 1 hr (Table 4)): 87%
- viability at 500 µM ([2]; 1 h, DEM + 0.50 mM, 1 hr (Table 4)): 85%
- viability at 1000 µM ([2]; 1 h, 1 hr (Table 5)): 90%
- viability at 2500 µM ([2]; 1 h, DEM + 2.5 mM, 1 hr (Table 5)): 84%
- viability at 5000 µM ([2]; 1 h, 1 hr (Table 5)): 84%
- viability at 250 µM ([2]; 1 h, no DEM, 0.25 mM, 1 hr): 98%
- viability at 500 µM ([2]; 1 h, no DEM, 0.50 mM, 1 hr): 100%
- viability at 2500 µM ([2]; 1 h, no DEM, 2.5 mM, 1 hr): 95%
- viability at 250 µM ([2]; 2 h, DEM + 0.25 mM, 2 hrs (Table 4)): 86%
- viability at 500 µM ([2]; 2 h, DEM + 0.50 mM, 2 hrs (Table 4)): 84%
- viability at 1000 µM ([2]; 2 h, 2 hrs (Table 5)): 89%
- viability at 2500 µM ([2]; 2 h, DEM + 2.5 mM, 2 hrs (Table 5)): 83.5%
- viability at 5000 µM ([2]; 2 h, 2 hrs (Table 5)): 82%
- viability at 250 µM ([2]; 2 h, no DEM, 0.25 mM, 2 hrs): 100%
- viability at 500 µM ([2]; 2 h, no DEM, 0.50 mM, 2 hrs): 101%
- viability at 2500 µM ([2]; 2 h, no DEM, 2.5 mM, 2 hrs): 95%
- viability at 250 µM ([2]; 4 h, DEM + 0.25 mM, 4 hrs (Table 4)): 87%
- viability at 500 µM ([2]; 4 h, DEM + 0.50 mM, 4 hrs (Table 4)): 85%
- viability at 1000 µM ([2]; 4 h, 4 hrs (Table 5)): 88%
- viability at 2500 µM ([2]; 4 h, DEM + 2.5 mM, 4 hrs (Table 5)): 82%
- viability at 5000 µM ([2]; 4 h, 4 hrs (Table 5)): 80%
- viability at 250 µM ([2]; 4 h, no DEM, 0.25 mM, 4 hrs): 116%
- viability at 500 µM ([2]; 4 h, no DEM, 0.50 mM, 4 hrs): 114%
- viability at 2500 µM ([2]; 4 h, no DEM, 2.5 mM, 4 hrs): 104%
- cellular suffering (in words) ([2]; hepatocytes treated with DEM then test substance): a cellular suffering (cellular dilatation without appearance of vesicles) was at first detected, which disappeared after few tens of minutes
- cellular toxicity (in words) ([2]; in vitro, up to 5 mM): does not cause cellular toxicity and, at least in vitro, is very well tolerated
- restoring immunological functionality (in words) ([3]; CTX-immunodepressed old rat): effective in restoring a correct immunological functionality
- antibodies levels (in words) ([3]; intraperitoneal, young and old rats): causes a considerable increase in antibodies levels both in young (Table 11) and old (Table 12) rats
- serum antibodies level (agglutination, Days from immunization) ([3]; old rats, day 12): 2
- serum antibodies level (agglutination, Days from immunization) ([3]; old rats, day 20): 8
- serum antibodies level (agglutination, Days from immunization) ([3]; old rats, day 29): 32
- serum antibodies level (agglutination, Days from immunization) ([3]; old rats, day 40): 64
- serum antibodies level (agglutination, Days from immunization) ([3]; young rats, day 12): 2
- serum antibodies level (agglutination, Days from immunization) ([3]; young rats, day 20): 4
- serum antibodies level (agglutination, Days from immunization) ([3]; young rats, day 29): 20
- serum antibodies level (agglutination, Days from immunization) ([3]; young rats, day 40): 20
- Mice with neoplasms, % [4, 5]: 50%
- Mice with neoplasms/group [4, 5]: 3/6
- development of tumours of the lungs (in words) ([4]; chronic treatment): significantly slowed down the development of tumours of the lungs; also recorded: its action seems most potent on the tumours directly induced by contact with a chemical carcinogen, such as urethane
